“Also recorded” adds a separate entry of the source.

One assay deals with T1, MrgB2 (mouse MrgprB2) (Mus musculus, UniProt Q3KNA1).
T1 construct: expressed in transfected cells; host or cells: HeLa cells, pcDNA3.1(-)
T1 sequence (Q3KNA1 1-338): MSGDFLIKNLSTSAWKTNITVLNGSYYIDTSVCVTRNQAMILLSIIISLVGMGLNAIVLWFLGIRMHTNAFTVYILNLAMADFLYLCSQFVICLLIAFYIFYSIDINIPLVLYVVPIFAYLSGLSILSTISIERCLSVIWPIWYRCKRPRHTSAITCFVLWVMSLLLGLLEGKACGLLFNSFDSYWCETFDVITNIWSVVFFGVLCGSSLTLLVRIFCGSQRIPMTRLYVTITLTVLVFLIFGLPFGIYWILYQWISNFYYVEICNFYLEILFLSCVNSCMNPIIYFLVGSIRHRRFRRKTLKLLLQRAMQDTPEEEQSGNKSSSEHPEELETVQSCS
The experiment in a line: Calcium imaging of cells transfected with the GPCR (Table 1). It counts as cell-based. As to conditions: for inhibition of SP-induced activation of mouse MrgprB2: FIG. 11: SP 50 μM, NK1 antagonists 50 μM. The procedure:
human MRGPRX2 was isolated by PCR from human genomic DNA using the forward and reverse primers, […] (SEQ. ID. NO: 3) and […] (SEQ. ID. NO: 4), and cloned into pcDNA3.1(−). The mouse MrgprA1 cDNA expression clone was purchased from ORIGENE Technologies. The mouse MrgprB2 coding sequences were PCR-amplified from mouse genomic DNA using the primer pair, […] (SEQ. ID. NO: 5) and […] (SEQ. ID. NO: 6), and cloned into pcDNA3.1 (−).
10 μg of expression vector (human MRGPRX2, mouse MrgprA1 or NK1) and 10 μl of LIPOFECTAMINE 2000 transfection reagent were diluted into 0.5 ml of DMEM and separately left at room temperature (RT) for 5 min. They were then mixed and incubated at RT for 20 minutes prior to being added to HeLa cells. HeLa cells were grown to confluence, trypsinized and 1×10^6 cells were pelleted in a 15 ml tube by centrifugation at 1000 rpm for 5 minutes. The DMEM-LIPOFECTAMINE 2000-DNA mixture (1 ml) was then added to the cell pellet, suspended and incubated at RT for 5 minutes. 2 ml of complete DMEM with 10% FBS without antibiotics were added to the tube, mixed by inverting the tube, plated into a 96-well glass bottom plate at 50,000 cells/well, and placed in a 37° C. CO2 incubator for 3 hours. HeLa cells transfected with salmon sperm DNA were plated as a control. The medium was changed after 3 hours and left in the incubator. 24 hours after transfection, the medium in the wells was removed and 100 μl of complete DMEM containing 2 μM of FURA-2 were added to each well and left at room temperature in the dark for 1 hr.
Calcium imaging was performed immediately after loading cells with Fura-2, using a ZEISS Axiovert 200M microscope platform equipped with a flipping filter wheel for ratiometric imaging. Axiovision software, version 4.6 was used for calcium image analysis of the cells excited at 340 nm and 380 nm. Agonists were added at 15 seconds after the start of the excitation procedure. Antagonists were added five minutes before imaging with the agonists. Images were taken every 5 seconds, including at zero time, during a 90 second period or longer if required. The software later analyzed all images taken during each excitation period. Ratiometric changes were measured in 10-20 cells in each individual experiment. An average of the fluorescence of the cells in each image was calculated and plotted against time in seconds.

Assay [1] relates to mice (itch, scratching bouts). The experiment in a line: Mouse cheek model, scratching bouts. The conditions noted are these: for effect on SP-provoked itch (scratching bouts): C57BL/6 (WT) mice, co-injected with SP intradermally into the cheek; for effect on SP-provoked itch (scratching bouts) / provocation of itch (scratching bouts) by the injected substance, WT mice: 10 μl; for provocation of itch (scratching bouts) by the injected substance, WT mice: intradermal injection into the cheek. It counts as in vivo. The procedure: The mouse cheek model was used to evaluate scratching behavior in Mrgpr cluster Δ−/− and NK1−/− mice. Mice used for behavioral studies were 2 to 3 months old, 20-30 g. Mice were habituated for 30 minutes/day for 3 days prior and for 15 minutes on the day of the study. 10 μl of each compound were delivered by a 31G needle to the cheek. The mice were not shaved prior to injections to avoid irritation. All experiments were performed at consistent times during the day (9:00 am to 2:00 pm) and under the same conditions and in groups of at least 7 mice. The mice were videotaped in a soundproof environment minimize distraction. Recordings were scored for the number of scratching bouts that occur over 1 minute intervals during 25 minute observation periods and the investigator was not aware of the group allocation during scoring the study and behavioral analysis. A scratching bout was initiated by lifting of the hind paw to the area of injection, and ended by returning of the hind paw to the floor or to the mouth. […]
For behavioral studies, average numbers of scratching bouts were compared across groups using one-way ANOVA. Pair-wise comparisons were performed using student t test after correcting p values for multiple comparisons using the Bonferroni procedure. For DRG studies and mast cell degranulation studies, unpaired student t-test was used. Differences were considered to be statistically significant for P<0.05. Data analysis was performed using PRISM 6.

Where [2] appears, read: C57BL/6 mice, co-injected intradermally into the cheek, 10 μL, 500 μM of each substance.

Take `FC(F)(F)c1cc(CO[C@H]2CCCN[C@H]2c2ccccc2)cc(C(F)(F)F)c1` [L-733060]: the “inhibition of SP-induced activation of mouse MrgprB2” value at MrgB2 (mouse MrgprB2) was “antagonized; also recorded: antagonists”. Also, the “effect on SP-provoked itch (scratching bouts)” value in assay [1] (500 μM of each substance) is “only minimally effective; also recorded: not effective”; in assay [1] (500 μM of each substance, listed as L733060) it was “does not significantly decrease and not and lack of significant blockade and does not”.

Take `C[C@@H](O[C@H]1OCCN(Cc2n[nH]c(=O)[nH]2)[C@H]1c1ccc(F)cc1)c1cc(C(F)(F)F)cc(C(F)(F)F)c1` [aprepitant]: the “inhibition of SP-induced activation of mouse MrgprB2” value on MrgB2 (mouse MrgprB2) is “antagonized; also recorded: antagonists”.

As to “Boc-Gln-D-Trp(Formyl)-Phe benzyl ester trifluoroacetate [QWF]”, on MrgB2 (mouse MrgprB2), the “inhibition of mMrgprB2 activation by compound 48/80” value is on record as “inhibits” and the “inhibition of SP-induced activation of mouse MrgprB2” value is “inhibits; also recorded: antagonized; also recorded: antagonist”. For the same molecule, the “inhibition of mouse MrgprB2 activation by atracurium and ciprofloxacin” value on MrgB2 (mouse MrgprB2) (FIG. 8a) is given as “antagonized; also recorded: inhibits”. Further, the “inhibition of mMrgprB2 activation by SLIGRL” value on MrgB2 (mouse MrgprB2) (SLIGRL 10 μM, QWF 10 μM (FIG. 12)) was “inhibits”. In addition, the “effect on SP-provoked itch (scratching bouts)” value in assay [1] (500 μM of each substance) is on record as “significantly decreased; also recorded: decreased SP-induced itch to baseline; also recorded: decreased SP-provoked itch to baseline; also recorded: reduced to baseline”. In assay [1] (setting [2]), the “effect on SLIGRL-provoked itch (scratching bouts)” value is “blocks; also recorded: reduced to baseline; also recorded: significantly decreased” and the “effect on compound 48/80-provoked itch (scratching bouts)” value is on record as “blocks compound 48/80-induced itch to baseline; also recorded: blocks compound 48/80-provoked itch to baseline; also recorded: reduced to baseline; also recorded: significantly decreased”.

In the case of “SLIGRL: tethered hexapeptide ligand of mouse PAR2 (SEQ ID NO: 7)”, in the assay with MrgB2 (mouse MrgprB2), the “activation of mouse MrgprB2 by the substance (in words)” value was “activates”. Moreover, the “provocation of itch (scratching bouts) by the injected substance, WT mice” value in assay [1] is “provoke itch”.

Turning to “SP: inflammatory undecapeptide neuropeptide of the tachykinin family, synthesized by GenScript”, the “activation of mouse MrgprB2 by the substance (in words)” value with MrgB2 (mouse MrgprB2) is reported as “activates”. The “SP-provoked itch in NK1 knockout mice” value in assay [1] (cheek, intradermal, FIG. 5a: 10 μL SP 1 mM, compared to WT) is on record as “induced itch; also recorded: provoked itch; also recorded: not decreased”. Besides, the “SP-provoked itch in Mrgpr cluster knockout mice” value in assay [1] (cheek, intradermal, FIG. 5a: 10 μL SP 1 mM, compared to WT, listed as Substance P) is “does not provoke itch”. The “provocation of itch (scratching bouts) by the injected substance, WT mice” value in assay [1] is “induced itch; also recorded: provoked itch”; in assay [1] (listed as Substance P) it was “provokes itch”.

The values above are taken from patent US10426815B2, “Prevention and treatment of itch with an MRGPR antagonist” (THE GENERAL HOSPITAL CORPORATION, priority 2015, dated 2019).
